In the case of `CC(=O)O[C@]1(C(C)=O)CC[C@H]2[C@@H]3C[C@H](C)C4=CC(=O)CC[C@]4(C)[C@H]3CC[C@@]21C`, the solubility (mole fraction) (in acetone, 278.15 K) is reported as 0.00469, the solubility (mole fraction) (in acetone, 283.15 K) is reported as 0.00547 and the solubility (mole fraction) (in acetone, 288.15 K) is reported as 0.00618. It also gave a solubility (mole fraction) (in acetone, 293.15 K) of 0.00716, a solubility (mole fraction) (in acetone, 298.15 K) of 0.0083 and a solubility (mole fraction) (in acetone, 303.15 K) of 0.00959. For the same molecule, the solubility (mole fraction) (in acetone, 308.15 K) was 0.0112, the solubility (mole fraction) (in acetone, 313.15 K) was 0.0126 and the solubility (mole fraction) (in acetone, 318.15 K) was 0.0144. It also gave a solubility (mole fraction) (in acetone, 323.15 K) of 0.0164, a solubility (mole fraction) (in acetonitrile, 278.15 K) of 0.00283 and a solubility (mole fraction) (in acetonitrile, 283.15 K) of 0.00339. It also gave a solubility (mole fraction) (in acetonitrile, 288.15 K) of 0.00397, a solubility (mole fraction) (in acetonitrile, 293.15 K) of 0.00473 and a solubility (mole fraction) (in acetonitrile, 298.15 K) of 0.0056. For the same molecule, the solubility (mole fraction) (in acetonitrile, 303.15 K) was 0.00664, the solubility (mole fraction) (in acetonitrile, 308.15 K) was 0.00785 and the solubility (mole fraction) (in acetonitrile, 313.15 K) was 0.0092. For the same molecule, the solubility (mole fraction) (in acetonitrile, 318.15 K) was 0.0109, the solubility (mole fraction) (in acetonitrile, 323.15 K) was 0.013 and the solubility (mole fraction) (in ethanol, 278.15 K) was 0.000465. For the same molecule, the solubility (mole fraction) (in ethanol, 283.15 K) was 0.000655, the solubility (mole fraction) (in ethanol, 288.15 K) was 0.000831 and the solubility (mole fraction) (in ethanol, 293.15 K) was 0.00106. It also gave a solubility (mole fraction) (in ethanol, 298.15 K) of 0.00135, a solubility (mole fraction) (in ethanol, 303.15 K) of 0.00168 and a solubility (mole fraction) (in ethanol, 308.15 K) of 0.00211. It also gave a solubility (mole fraction) (in ethanol, 313.15 K) of 0.00267, a solubility (mole fraction) (in ethanol, 318.15 K) of 0.0034 and a solubility (mole fraction) (in ethanol, 323.15 K) of 0.0043. For the same molecule, the solubility (mole fraction) (in ethyl acetate, 278.15 K) was 0.00327, the solubility (mole fraction) (in ethyl acetate, 283.15 K) was 0.00385 and the solubility (mole fraction) (in ethyl acetate, 288.15 K) was 0.00446. For the same molecule, the solubility (mole fraction) (in ethyl acetate, 293.15 K) was 0.00515, the solubility (mole fraction) (in ethyl acetate, 298.15 K) was 0.00584 and the solubility (mole fraction) (in ethyl acetate, 303.15 K) was 0.00671. It also gave a solubility (mole fraction) (in ethyl acetate, 308.15 K) of 0.00773, a solubility (mole fraction) (in ethyl acetate, 313.15 K) of 0.00887 and a solubility (mole fraction) (in ethyl acetate, 318.15 K) of 0.0102. The solubility (mole fraction) (in ethyl acetate, 323.15 K) was 0.0118, the solubility (mole fraction) (in isobutanol, 278.15 K) was 0.000675 and the solubility (mole fraction) (in isobutanol, 283.15 K) was 0.00085. The solubility (mole fraction) (in isobutanol, 288.15 K) was 0.00121, the solubility (mole fraction) (in isobutanol, 293.15 K) was 0.00157 and the solubility (mole fraction) (in isobutanol, 298.15 K) was 0.00202. It also gave a solubility (mole fraction) (in isobutanol, 303.15 K) of 0.00269, a solubility (mole fraction) (in isobutanol, 308.15 K) of 0.00351 and a solubility (mole fraction) (in isobutanol, 313.15 K) of 0.00463. The solubility (mole fraction) (in isobutanol, 318.15 K) was 0.00611, the solubility (mole fraction) (in isobutanol, 323.15 K) was 0.00789 and the solubility (mole fraction) (in isobutyl acetate, 278.15 K) was 0.00292. For the same molecule, the solubility (mole fraction) (in isobutyl acetate, 283.15 K) was 0.00334, the solubility (mole fraction) (in isobutyl acetate, 288.15 K) was 0.0039 and the solubility (mole fraction) (in isobutyl acetate, 293.15 K) was 0.00443. The solubility (mole fraction) (in isobutyl acetate, 298.15 K) was 0.005, the solubility (mole fraction) (in isobutyl acetate, 303.15 K) was 0.00574 and the solubility (mole fraction) (in isobutyl acetate, 308.15 K) was 0.00654. The solubility (mole fraction) (in isobutyl acetate, 313.15 K) was 0.00736, the solubility (mole fraction) (in isobutyl acetate, 318.15 K) was 0.00849 and the solubility (mole fraction) (in isobutyl acetate, 323.15 K) was 0.00979. The solubility (mole fraction) (in isopropanol, 278.15 K) was 0.000451, the solubility (mole fraction) (in isopropanol, 283.15 K) was 0.000651 and the solubility (mole fraction) (in isopropanol, 288.15 K) was 0.000754. The solubility (mole fraction) (in isopropanol, 293.15 K) was 0.000945, the solubility (mole fraction) (in isopropanol, 298.15 K) was 0.00126 and the solubility (mole fraction) (in isopropanol, 303.15 K) was 0.00166. For the same molecule, the solubility (mole fraction) (in isopropanol, 308.15 K) was 0.00217, the solubility (mole fraction) (in isopropanol, 313.15 K) was 0.00281 and the solubility (mole fraction) (in isopropanol, 318.15 K) was 0.00373. For the same molecule, the solubility (mole fraction) (in isopropanol, 323.15 K) was 0.00477, the solubility (mole fraction) (in isopropyl acetate, 278.15 K) was 0.00234 and the solubility (mole fraction) (in isopropyl acetate, 283.15 K) was 0.00273. It also gave a solubility (mole fraction) (in isopropyl acetate, 288.15 K) of 0.00317, a solubility (mole fraction) (in isopropyl acetate, 293.15 K) of 0.00367 and a solubility (mole fraction) (in isopropyl acetate, 298.15 K) of 0.00428. The solubility (mole fraction) (in isopropyl acetate, 303.15 K) was 0.00497, the solubility (mole fraction) (in isopropyl acetate, 308.15 K) was 0.00567 and the solubility (mole fraction) (in isopropyl acetate, 313.15 K) was 0.00657. It also gave a solubility (mole fraction) (in isopropyl acetate, 318.15 K) of 0.00751, a solubility (mole fraction) (in isopropyl acetate, 323.15 K) of 0.00866 and a solubility (mole fraction) (in methanol, 278.15 K) of 0.000588. For the same molecule, the solubility (mole fraction) (in methanol, 283.15 K) was 0.000719, the solubility (mole fraction) (in methanol, 288.15 K) was 0.000887 and the solubility (mole fraction) (in methanol, 293.15 K) was 0.0011. For the same molecule, the solubility (mole fraction) (in methanol, 298.15 K) was 0.00135, the solubility (mole fraction) (in methanol, 303.15 K) was 0.00165 and the solubility (mole fraction) (in methanol, 308.15 K) was 0.00202. It also gave a solubility (mole fraction) (in methanol, 313.15 K) of 0.0025, a solubility (mole fraction) (in methanol, 318.15 K) of 0.00309 and a solubility (mole fraction) (in methanol, 323.15 K) of 0.00381. The solubility (mole fraction) (in methyl acetate, 278.15 K) was 0.00351, the solubility (mole fraction) (in methyl acetate, 283.15 K) was 0.00415 and the solubility (mole fraction) (in methyl acetate, 288.15 K) was 0.00479. The solubility (mole fraction) (in methyl acetate, 293.15 K) was 0.00557, the solubility (mole fraction) (in methyl acetate, 298.15 K) was 0.00649 and the solubility (mole fraction) (in methyl acetate, 303.15 K) was 0.00748. The solubility (mole fraction) (in methyl acetate, 308.15 K) was 0.00866, the solubility (mole fraction) (in methyl acetate, 313.15 K) was 0.00999 and the solubility (mole fraction) (in methyl acetate, 318.15 K) was 0.0115. The solubility (mole fraction) (in methyl acetate, 323.15 K) was 0.0131, the solubility (mole fraction) (in n-butanol, 278.15 K) was 0.000757 and the solubility (mole fraction) (in n-butanol, 283.15 K) was 0.000978. The solubility (mole fraction) (in n-butanol, 288.15 K) was 0.00131, the solubility (mole fraction) (in n-butanol, 293.15 K) was 0.00168 and the solubility (mole fraction) (in n-butanol, 298.15 K) was 0.0022. The solubility (mole fraction) (in n-butanol, 303.15 K) was 0.00277, the solubility (mole fraction) (in n-butanol, 308.15 K) was 0.00356 and the solubility (mole fraction) (in n-butanol, 313.15 K) was 0.0046. For the same molecule, the solubility (mole fraction) (in n-butanol, 318.15 K) was 0.0059, the solubility (mole fraction) (in n-butanol, 323.15 K) was 0.00753 and the solubility (mole fraction) (in n-butyl acetate, 278.15 K) was 0.00296. The solubility (mole fraction) (in n-butyl acetate, 283.15 K) was 0.0035, the solubility (mole fraction) (in n-butyl acetate, 288.15 K) was 0.00406 and the solubility (mole fraction) (in n-butyl acetate, 293.15 K) was 0.00462. The solubility (mole fraction) (in n-butyl acetate, 298.15 K) was 0.00538, the solubility (mole fraction) (in n-butyl acetate, 303.15 K) was 0.00622 and the solubility (mole fraction) (in n-butyl acetate, 308.15 K) was 0.00716. It also gave a solubility (mole fraction) (in n-butyl acetate, 313.15 K) of 0.00829, a solubility (mole fraction) (in n-butyl acetate, 318.15 K) of 0.00958 and a solubility (mole fraction) (in n-butyl acetate, 323.15 K) of 0.0111. It also gave a solubility (mole fraction) (in n-propanol, 278.15 K) of 0.000683, a solubility (mole fraction) (in n-propanol, 283.15 K) of 0.00089 and a solubility (mole fraction) (in n-propanol, 288.15 K) of 0.00114. The solubility (mole fraction) (in n-propanol, 293.15 K) was 0.00148, the solubility (mole fraction) (in n-propanol, 298.15 K) was 0.00188 and the solubility (mole fraction) (in n-propanol, 303.15 K) was 0.00245. For the same molecule, the solubility (mole fraction) (in n-propanol, 308.15 K) was 0.0031, the solubility (mole fraction) (in n-propanol, 313.15 K) was 0.00395 and the solubility (mole fraction) (in n-propanol, 318.15 K) was 0.00508. For the same molecule, the solubility (mole fraction) (in n-propanol, 323.15 K) was 0.00648, the solubility (mole fraction) (in n-propyl acetate, 278.15 K) was 0.0032 and the solubility (mole fraction) (in n-propyl acetate, 283.15 K) was 0.00384. The solubility (mole fraction) (in n-propyl acetate, 288.15 K) was 0.00446, the solubility (mole fraction) (in n-propyl acetate, 293.15 K) was 0.00517 and the solubility (mole fraction) (in n-propyl acetate, 298.15 K) was 0.0059. For the same molecule, the solubility (mole fraction) (in n-propyl acetate, 303.15 K) was 0.00682, the solubility (mole fraction) (in n-propyl acetate, 308.15 K) was 0.00791 and the solubility (mole fraction) (in n-propyl acetate, 313.15 K) was 0.00917. It also gave a solubility (mole fraction) (in n-propyl acetate, 318.15 K) of 0.0105 and a solubility (mole fraction) (in n-propyl acetate, 323.15 K) of 0.012.
